Test results taken from ChEMBL document CHEMBL6103671, “Novel Piperazine Derivatives as Selective Antagonists of GluN2B-Containing NMDARs under Acidic pH Conditions” (ACS Med Chem Lett, 2025).
pIC50: −log10 of the molar value.

Key:
Type in all cases: cell-based
[1] = Antagonist activity at human GluN1-1a/[…] receptor expressed in Xenopus laevis oocytes assessed as inhibition of glutamate/glycine-induced current at pH 7.6 with -40 mV holding potential by two-electrode voltage-clamp method; conditions: Oocyte
[2] = Antagonist activity at human GluN1-1a/[…] receptor expressed in Xenopus laevis oocytes assessed as inhibition of glutamate/glycine-induced current at pH 6.9 with -40 mV holding potential by two-electrode voltage-clamp method; conditions: Oocyte
Oocyte = assay: Selectivity ratio of IC50 for antagonist activity at human GluN1-1a/GluN2A receptor expressed in Xenopus laevis oocytes at pH 7.6 to antagonist activity at human GluN1-1a/GluN2A receptor expressed in Xenopus laevis oocytes at pH 6.9

SMILES	pIC50 [1]	pIC50 [2]	Ratio IC50 (Oocyte)
NC(=O)Nc1ccc(OC[C@@H](O)CN2CCN(c3ccc(Cl)cc3)CC2)cc1	6.34	7.34	9.8
NC(=O)Nc1ccc(OC[C@H](O)CN2CCN(c3ccc(Cl)c(Cl)c3)CC2)cc1	6.88	7.52	4.4
NC(=O)Nc1ccc(OC[C@H](O)CN2CCN(c3ccc(Cl)cc3)CC2)cc1	7.22	7.72	3.2
O=C1CCc2cc(OC[C@@H](O)CN3CCN(c4ccc(C(F)(F)F)cc4)CC3)ccc2N1	6.14	6.95	6.5

Results, then the compound that gave them:

pIC50 [1]	pIC50 [2]	Ratio IC50 (Oocyte)	SMILES
6.02	6.99	9.2	NC(=O)Nc1ccc(OC[C@@H](O)CN2CCN(c3ccc(Cl)c(Cl)c3)CC2)cc1
6.85	7.64	6.2	O=C1CCc2cc(OC[C@H](O)CN3CCN(c4ccc(C(F)(F)F)cc4)CC3)ccc2N1 [NP-10679]
